Results reported in patent US8415469B2, “Compounds and methods for kinase modulation, and indications therefor” (Plexxikon Inc., priority 2005, dated 2013).

How the values were obtained:
Assay type in all cases: biochemical
[1] = target: T1, Itk (Homo sapiens, UniProt Q08881); assay: AlphaScreen kinase assay, Itk; conditions: read-out: IC50, activity toward kinase Itk
T1 sequence (Q08881 1-620): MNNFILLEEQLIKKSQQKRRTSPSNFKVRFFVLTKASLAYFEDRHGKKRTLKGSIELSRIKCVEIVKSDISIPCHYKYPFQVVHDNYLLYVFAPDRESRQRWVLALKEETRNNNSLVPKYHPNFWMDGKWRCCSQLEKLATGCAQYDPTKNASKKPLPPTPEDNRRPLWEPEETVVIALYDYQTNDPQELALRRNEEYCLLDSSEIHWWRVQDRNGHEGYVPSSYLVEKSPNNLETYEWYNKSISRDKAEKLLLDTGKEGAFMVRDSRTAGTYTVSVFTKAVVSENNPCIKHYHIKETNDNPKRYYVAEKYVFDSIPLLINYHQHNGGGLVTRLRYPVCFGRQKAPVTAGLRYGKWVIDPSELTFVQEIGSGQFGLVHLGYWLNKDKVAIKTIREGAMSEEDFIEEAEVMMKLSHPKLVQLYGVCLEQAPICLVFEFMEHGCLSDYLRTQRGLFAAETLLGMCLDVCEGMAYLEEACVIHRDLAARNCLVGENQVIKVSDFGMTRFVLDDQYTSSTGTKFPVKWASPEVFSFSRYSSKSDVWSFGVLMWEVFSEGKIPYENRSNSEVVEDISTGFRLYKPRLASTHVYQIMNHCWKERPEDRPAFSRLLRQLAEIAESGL
Description: AlphaScreen assay was used to screen additional kinases. The assay is similarly dependent on the phosphorylation of a peptide substrate. In this assay, an antibody that recognizes phosphorylated substrate is bound to an acceptor bead. The peptide substrate is attached to biotin, which binds to a donor head that contains streptavidin. Thus phosphorylated substrate is bound by antibody and streptavidin, bringing the donor and acceptor heads into close proximity when kinase is not inhibited. The donor produces singlet oxygen which results in emission from the acceptor when they are in close proximity. Conversely, when kinase is inhibited, the donor and acceptor beads are not associated and the emission from the acceptor is reduced.
AlphaScreen assays were done using compounds dissolved in DMSO to a concentration of 20 mM. The compounds were diluted accordingly to the desired final concentrations in each sample well, using 1:3 serial dilution for a total of 8 concentration points.

[2] = target: T2, Kdr (Homo sapiens, UniProt P35968); assay: Z'-Lyte FRET kinase assay (Invitrogen), Kdr; conditions: read-out: IC50, activity toward kinase Kdr
T2 construct: purchased Invitrogen (assay run by Invitrogen)
T2 sequence (P35968 20-1356): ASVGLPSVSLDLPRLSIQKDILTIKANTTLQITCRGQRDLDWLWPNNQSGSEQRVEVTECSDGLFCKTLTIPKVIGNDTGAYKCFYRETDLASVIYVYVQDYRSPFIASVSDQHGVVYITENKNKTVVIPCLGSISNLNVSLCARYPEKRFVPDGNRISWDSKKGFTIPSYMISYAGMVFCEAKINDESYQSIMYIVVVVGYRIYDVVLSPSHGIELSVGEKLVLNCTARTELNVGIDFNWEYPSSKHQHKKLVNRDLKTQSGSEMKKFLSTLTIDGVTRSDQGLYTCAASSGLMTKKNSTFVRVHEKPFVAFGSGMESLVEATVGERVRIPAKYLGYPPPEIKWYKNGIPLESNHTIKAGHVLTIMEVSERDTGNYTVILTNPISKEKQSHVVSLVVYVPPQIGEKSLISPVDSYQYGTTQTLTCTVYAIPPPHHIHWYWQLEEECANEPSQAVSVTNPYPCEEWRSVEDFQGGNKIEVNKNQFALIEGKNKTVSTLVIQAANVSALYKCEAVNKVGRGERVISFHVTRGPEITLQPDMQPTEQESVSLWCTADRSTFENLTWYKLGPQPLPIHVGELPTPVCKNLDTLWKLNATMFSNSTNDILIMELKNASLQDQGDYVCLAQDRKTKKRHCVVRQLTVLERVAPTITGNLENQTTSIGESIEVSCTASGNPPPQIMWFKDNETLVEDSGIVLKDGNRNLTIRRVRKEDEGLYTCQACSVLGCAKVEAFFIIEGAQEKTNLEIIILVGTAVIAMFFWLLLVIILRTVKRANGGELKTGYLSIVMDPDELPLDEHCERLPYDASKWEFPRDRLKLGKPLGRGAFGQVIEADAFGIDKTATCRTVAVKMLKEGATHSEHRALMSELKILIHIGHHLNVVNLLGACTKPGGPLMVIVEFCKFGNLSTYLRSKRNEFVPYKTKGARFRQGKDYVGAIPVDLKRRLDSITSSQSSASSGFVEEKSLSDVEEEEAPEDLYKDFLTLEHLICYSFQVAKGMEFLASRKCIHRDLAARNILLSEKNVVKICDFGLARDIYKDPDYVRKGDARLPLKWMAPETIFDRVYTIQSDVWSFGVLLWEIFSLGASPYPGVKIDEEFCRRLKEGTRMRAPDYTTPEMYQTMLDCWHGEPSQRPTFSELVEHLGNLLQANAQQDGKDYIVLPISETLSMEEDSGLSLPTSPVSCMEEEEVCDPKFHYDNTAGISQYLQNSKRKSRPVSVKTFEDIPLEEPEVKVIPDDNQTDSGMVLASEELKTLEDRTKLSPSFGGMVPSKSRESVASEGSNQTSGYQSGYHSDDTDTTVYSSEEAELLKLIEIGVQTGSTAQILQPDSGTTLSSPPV

[3] = target: T3, Stk6 (Homo sapiens, UniProt O14965); assay: Z'-Lyte FRET kinase assay (Invitrogen), Stk6; conditions: read-out: IC50, activity toward kinase Stk6
T3 construct: purchased Invitrogen (Carlsbad, Calif.), screening service
T3 sequence (O14965 1-403): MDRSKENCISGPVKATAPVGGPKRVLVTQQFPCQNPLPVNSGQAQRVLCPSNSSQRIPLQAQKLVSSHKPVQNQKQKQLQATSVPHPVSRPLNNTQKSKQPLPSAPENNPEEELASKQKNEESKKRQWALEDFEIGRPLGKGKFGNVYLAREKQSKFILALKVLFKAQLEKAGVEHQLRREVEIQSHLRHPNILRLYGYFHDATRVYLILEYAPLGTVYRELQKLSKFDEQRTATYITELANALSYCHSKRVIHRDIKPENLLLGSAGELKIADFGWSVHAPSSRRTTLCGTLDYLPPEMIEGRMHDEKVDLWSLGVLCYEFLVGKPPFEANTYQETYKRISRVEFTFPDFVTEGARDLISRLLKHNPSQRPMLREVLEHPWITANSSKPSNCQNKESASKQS

[4] = target: T4, IKK beta (Homo sapiens, UniProt O14920); assay: AlphaScreen kinase assay, IKK beta; conditions: read-out: IC50, activity toward kinase IKK beta
T4 sequence (O14920 1-756): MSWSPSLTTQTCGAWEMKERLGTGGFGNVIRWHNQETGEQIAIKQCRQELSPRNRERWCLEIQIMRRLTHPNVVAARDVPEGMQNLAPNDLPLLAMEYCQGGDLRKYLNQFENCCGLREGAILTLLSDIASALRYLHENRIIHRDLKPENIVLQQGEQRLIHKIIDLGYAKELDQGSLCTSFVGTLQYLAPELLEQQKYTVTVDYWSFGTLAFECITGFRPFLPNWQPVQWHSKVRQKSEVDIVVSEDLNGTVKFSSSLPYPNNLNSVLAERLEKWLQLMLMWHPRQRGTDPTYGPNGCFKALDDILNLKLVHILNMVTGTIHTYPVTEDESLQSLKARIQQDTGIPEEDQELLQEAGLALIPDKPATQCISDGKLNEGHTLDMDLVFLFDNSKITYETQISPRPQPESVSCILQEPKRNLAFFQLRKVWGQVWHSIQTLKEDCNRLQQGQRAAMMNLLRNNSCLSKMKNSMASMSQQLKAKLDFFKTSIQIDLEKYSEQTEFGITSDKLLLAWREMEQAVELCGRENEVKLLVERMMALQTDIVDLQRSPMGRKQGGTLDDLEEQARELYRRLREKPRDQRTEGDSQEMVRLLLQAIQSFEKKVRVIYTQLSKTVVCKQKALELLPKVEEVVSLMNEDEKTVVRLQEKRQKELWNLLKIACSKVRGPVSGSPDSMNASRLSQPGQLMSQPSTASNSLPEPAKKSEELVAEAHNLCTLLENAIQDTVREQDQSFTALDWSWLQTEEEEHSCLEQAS

[5] = target: Akt3 (Homo sapiens, UniProt Q9Y243); assay: AlphaScreen kinase assay, Akt3; conditions: read-out: IC50, activity toward kinase Akt3
Chain of Akt3 (Q9Y243 whole entry): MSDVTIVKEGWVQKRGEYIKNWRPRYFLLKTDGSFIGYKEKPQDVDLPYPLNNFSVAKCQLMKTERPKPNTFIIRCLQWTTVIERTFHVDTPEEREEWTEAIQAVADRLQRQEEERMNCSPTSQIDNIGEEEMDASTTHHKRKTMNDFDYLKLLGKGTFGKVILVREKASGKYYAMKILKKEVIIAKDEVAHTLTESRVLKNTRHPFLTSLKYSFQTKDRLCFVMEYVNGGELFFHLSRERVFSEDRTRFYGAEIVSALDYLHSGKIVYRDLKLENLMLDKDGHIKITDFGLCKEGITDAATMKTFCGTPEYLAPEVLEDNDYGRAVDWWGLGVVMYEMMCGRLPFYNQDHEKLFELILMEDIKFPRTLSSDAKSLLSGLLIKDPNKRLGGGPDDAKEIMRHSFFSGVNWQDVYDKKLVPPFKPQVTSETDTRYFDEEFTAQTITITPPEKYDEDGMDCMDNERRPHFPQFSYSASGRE
Outline: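 Peptide phosphorylation detected by proximity: streptavidin donor beads bind biotinylated substrate, acceptor beads carry antibody to phosphorylated substrate, singlet oxygen transfer gives emission. Dose-response over 8 points (1:3 steps); stocks 20 mM in DMSO.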

[6] = target: T5, PKC theta (Homo sapiens, UniProt Q04759); assay: Z'-Lyte FRET kinase assay (Invitrogen), PKC theta; conditions: read-out: IC50, activity toward kinase PKC theta
T5 construct: purchased Invitrogen (Carlsbad, Calif.), screening service
Description: The effect of potential modulators of kinase activity can be measured in a variety of different assays known in the art. For example, direct radiometric, indirect FRET or AlphaScreen assays may be used to assess the level of phosphorylation of a substrate in the presence of test compounds in order to determine the inhibitory affect of the compound on the kinase. Invitrogen (Carlsbad, Calif.) uses a FRET based assay for Btk, EGFR, EphB2, Flt3, lrak4, Kdr, MAP2K1, MAPKAPK2, PDGFRB, PKC theta, Stk6 and Yes. For these assays, compounds of the invention were screened by Invitrogen using Z′-Lyte™ kinase assay.
Briefly, the Invitrogen kinase assay involves use of a specific peptide substrate optimized for each kinase, containing a fluorophore at each end that make up the FRET pair. The peptide sensitivity to proteolytic cleavage depends on phosphorylation of the peptide. Non-phosphorylated peptide is cleaved by a protease while peptide phosphorylated by the kinase is not cleaved. Cleavage of the peptide disrupts the FRET between the donor (coumarin) and acceptor (fluorescein) fluorophores, resulting in an increase in the ratio of donor emission to acceptor emission. The emission ratio of coumarin to fluorescein is used to assess the reaction progress. The extent of phosphorylation is determined from the emission ratio, which is low when the kinase is active (phosphorylated peptide is not cleaved, FRET pair connected) or higher for inhibited kinase (non-phosphorylated peptide is cleaved, FRET pair separated). Thus, the assay involves a kinase reaction in the presence of varying concentrations of a given compound, a development reaction with site specific protease, and detection of the fluorescent emission ratio of coumarin and fluorscein. […] Reaction conditions for each kinase are determined to provide optimal reaction times, incubation temperature, kinase and ATP concentrations. Test samples are made up in 1× kinase buffer (50 mM HEPES pH 7.5, 50 mM MgCl2, 5 mM EGTA, 0.05% BRIJ-35) and compound at desired concentration prepared in DMSO such that the final DMSO is 1%. […] Typically, assay plates are prepared to 10 μl final volume per sample, adding 2.5 μl of compound at 4× the desired concentration in 4% DMSO (serial dilution of compound provides concentration curve), 5 μl of the desired kinase mixed with Z′-LYTE™ peptide substrate (2× in 2× kinase buffer, final peptide at 2 μM), and 2.5 μl of 4×ATP solution. All kinase except for MAP2K1 were at 10 μM ATP in the kinase reaction, while MAP2K1 was at 100 μM. Samples are mixed and the kinase reaction is incubated 1 hour at room temperature, after which 5 μl of development solution is added and mixed. After incubation for another 1 hour at room temperature, 5 μl of stop reagent is added to each sample and mixed. The fluorescence signals are measured to determine the emission ratio.

[7] = target: T6, c-Raf-1 (Homo sapiens, UniProt P04049); assay: AlphaScreen kinase assay, c-Raf-1; conditions: read-out: IC50, activity toward kinase c-Raf-1
T6 construct: purchased Upstate Biotechnology

[8] = target: T7, B-Raf (Homo sapiens, UniProt P15056); assay: AlphaScreen kinase assay, B-Raf; conditions: read-out: IC50, activity toward kinase B-Raf
T7 construct: purchased Upstate Biotechnology
T7 sequence (P15056 whole entry): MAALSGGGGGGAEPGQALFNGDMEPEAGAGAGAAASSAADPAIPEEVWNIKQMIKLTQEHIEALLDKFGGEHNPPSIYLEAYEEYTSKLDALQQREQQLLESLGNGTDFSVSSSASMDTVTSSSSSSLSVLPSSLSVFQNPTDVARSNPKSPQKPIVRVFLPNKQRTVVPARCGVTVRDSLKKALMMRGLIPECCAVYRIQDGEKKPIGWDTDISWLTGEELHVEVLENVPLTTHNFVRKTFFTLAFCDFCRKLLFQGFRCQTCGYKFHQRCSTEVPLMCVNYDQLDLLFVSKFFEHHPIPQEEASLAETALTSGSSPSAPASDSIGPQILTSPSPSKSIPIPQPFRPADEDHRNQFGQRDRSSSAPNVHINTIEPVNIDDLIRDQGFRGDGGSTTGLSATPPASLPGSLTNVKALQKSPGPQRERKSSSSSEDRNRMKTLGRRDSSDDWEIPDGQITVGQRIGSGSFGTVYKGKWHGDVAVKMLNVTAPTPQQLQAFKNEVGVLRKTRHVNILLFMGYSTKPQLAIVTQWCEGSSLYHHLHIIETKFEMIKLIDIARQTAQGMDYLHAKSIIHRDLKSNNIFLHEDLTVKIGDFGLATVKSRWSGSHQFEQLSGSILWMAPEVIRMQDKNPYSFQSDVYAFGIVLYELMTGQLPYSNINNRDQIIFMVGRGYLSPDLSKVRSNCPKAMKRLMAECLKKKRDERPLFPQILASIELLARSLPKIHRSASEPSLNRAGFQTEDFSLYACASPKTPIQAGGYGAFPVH

[9] = target: T8, Fms (Homo sapiens, UniProt P07333); assay: AlphaScreen kinase assay, Fms; conditions: read-out: IC50, activity toward kinase Fms
T8 construct: purchased Upstate Biotechnology
T8 sequence (P07333 20-972): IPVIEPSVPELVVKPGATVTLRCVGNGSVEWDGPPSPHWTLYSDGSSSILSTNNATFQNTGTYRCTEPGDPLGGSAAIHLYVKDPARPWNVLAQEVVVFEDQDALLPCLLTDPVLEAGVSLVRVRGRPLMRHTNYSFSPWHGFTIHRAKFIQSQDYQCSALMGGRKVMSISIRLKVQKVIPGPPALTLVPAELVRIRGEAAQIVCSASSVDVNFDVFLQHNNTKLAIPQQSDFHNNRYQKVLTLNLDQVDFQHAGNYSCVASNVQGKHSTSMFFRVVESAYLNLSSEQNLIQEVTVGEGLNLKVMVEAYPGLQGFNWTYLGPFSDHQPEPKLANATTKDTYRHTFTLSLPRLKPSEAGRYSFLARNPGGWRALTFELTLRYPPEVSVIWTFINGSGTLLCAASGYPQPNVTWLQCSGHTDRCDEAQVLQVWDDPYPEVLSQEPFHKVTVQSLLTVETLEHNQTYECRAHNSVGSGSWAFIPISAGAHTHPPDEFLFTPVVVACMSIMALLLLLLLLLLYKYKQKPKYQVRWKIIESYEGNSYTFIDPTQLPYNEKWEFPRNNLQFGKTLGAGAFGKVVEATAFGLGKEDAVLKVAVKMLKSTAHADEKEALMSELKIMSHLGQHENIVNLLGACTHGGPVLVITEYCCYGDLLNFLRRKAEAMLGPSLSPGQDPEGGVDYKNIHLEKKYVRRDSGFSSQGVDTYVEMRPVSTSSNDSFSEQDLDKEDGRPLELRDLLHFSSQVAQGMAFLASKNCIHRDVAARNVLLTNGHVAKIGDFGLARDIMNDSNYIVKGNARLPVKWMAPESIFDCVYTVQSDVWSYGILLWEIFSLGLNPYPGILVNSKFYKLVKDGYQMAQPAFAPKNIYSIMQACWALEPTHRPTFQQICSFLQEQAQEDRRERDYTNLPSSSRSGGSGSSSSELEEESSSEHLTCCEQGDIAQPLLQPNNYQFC

[10] = target: T9, Pyk2 (Homo sapiens, UniProt Q14289); assay: AlphaScreen kinase assay, Pyk2; conditions: read-out: IC50, activity toward kinase Pyk2
T9 construct: purchased Upstate Biotechnology

[11] = target: T10, Jnk3 (Homo sapiens, UniProt P53779); assay: AlphaScreen kinase assay, Jnk3; conditions: read-out: IC50, activity toward kinase Jnk3
T10 construct: purchased Upstate Biotechnology
T10 sequence (P53779 whole entry): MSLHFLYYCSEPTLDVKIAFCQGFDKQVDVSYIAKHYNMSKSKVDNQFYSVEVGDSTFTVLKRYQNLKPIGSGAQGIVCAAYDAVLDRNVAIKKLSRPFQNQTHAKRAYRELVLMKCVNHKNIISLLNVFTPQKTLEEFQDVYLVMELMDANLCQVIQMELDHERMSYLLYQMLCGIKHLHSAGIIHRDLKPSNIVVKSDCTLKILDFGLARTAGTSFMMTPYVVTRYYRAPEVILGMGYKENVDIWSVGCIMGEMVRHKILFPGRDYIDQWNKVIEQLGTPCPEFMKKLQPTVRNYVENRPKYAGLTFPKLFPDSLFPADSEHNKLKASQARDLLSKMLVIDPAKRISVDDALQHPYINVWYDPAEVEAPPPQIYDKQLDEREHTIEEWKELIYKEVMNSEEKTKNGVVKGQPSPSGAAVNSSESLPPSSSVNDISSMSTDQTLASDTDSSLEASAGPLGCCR

[12] = target: T11, B-Raf V600E (Homo sapiens, UniProt P15056, V600E); assay: AlphaScreen kinase assay, B-Raf V600E; conditions: read-out: IC50, activity toward kinase B-Raf V600E
T11 construct: P4254. pFastBacBD-CDC37 BRAF D437-K722-X, V600E; His6 with pFastBac HT leader (TEV site) (N); made in house; host or cells: Sf9 (baculovirus; chaperone CDC37 co-expressed)
T11 sequence (P15056 with tags, fused parts or gaps V600E): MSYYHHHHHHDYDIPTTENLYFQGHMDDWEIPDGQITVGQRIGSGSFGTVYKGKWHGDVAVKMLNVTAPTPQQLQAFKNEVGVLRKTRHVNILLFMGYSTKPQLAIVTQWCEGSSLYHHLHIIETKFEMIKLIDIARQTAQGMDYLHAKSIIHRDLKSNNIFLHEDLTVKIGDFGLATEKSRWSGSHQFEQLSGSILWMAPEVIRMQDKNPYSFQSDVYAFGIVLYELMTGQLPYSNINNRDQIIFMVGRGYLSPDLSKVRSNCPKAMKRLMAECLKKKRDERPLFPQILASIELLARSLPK

[13] = target: T12, Kit (Homo sapiens, UniProt P10721); assay: AlphaScreen kinase assay, Kit; conditions: read-out: IC50, activity toward kinase Kit
T12 construct: P1332.N6 BI PTP KIT M552-K948-X COD; His6 (N); made in house; host or cells: E. coli (PTP1B co-expressed)
T12 sequence (P10721 with tags, fused parts or gaps): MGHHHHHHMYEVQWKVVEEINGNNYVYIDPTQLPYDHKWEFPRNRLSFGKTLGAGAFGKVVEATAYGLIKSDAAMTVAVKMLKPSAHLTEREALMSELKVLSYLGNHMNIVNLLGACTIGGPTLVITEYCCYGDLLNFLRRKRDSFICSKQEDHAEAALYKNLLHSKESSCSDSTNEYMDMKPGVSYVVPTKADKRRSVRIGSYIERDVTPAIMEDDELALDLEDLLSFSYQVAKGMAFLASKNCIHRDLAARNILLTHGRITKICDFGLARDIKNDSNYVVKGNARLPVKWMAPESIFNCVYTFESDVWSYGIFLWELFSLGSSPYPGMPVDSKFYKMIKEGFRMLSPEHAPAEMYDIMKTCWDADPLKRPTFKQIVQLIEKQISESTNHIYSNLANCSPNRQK

[14] = target: T13, Fak (Homo sapiens, UniProt Q05397); assay: AlphaScreen kinase assay, Fak; conditions: read-out: IC50, activity toward kinase Fak
T13 construct: P1358.pFastBacHtb FAK S411-Q686-X; His6 with pFastBacHTb leader (TEV site) (N); made in house; host or cells: Sf9 (baculovirus)

[15] = target: T14, FGFR1 (Homo sapiens, UniProt P11362, C488A/C584S); assay: AlphaScreen kinase assay, FGFR1; conditions: read-out: IC50, activity toward kinase FGFR
T14 construct: P1351.pET N6 BI-PTP FGFR A458-E765-X C488A, C584S; made in house; host or cells: E. coli (PTP1B co-expressed)
T14 sequence (P11362 458-765 C488A/C584S): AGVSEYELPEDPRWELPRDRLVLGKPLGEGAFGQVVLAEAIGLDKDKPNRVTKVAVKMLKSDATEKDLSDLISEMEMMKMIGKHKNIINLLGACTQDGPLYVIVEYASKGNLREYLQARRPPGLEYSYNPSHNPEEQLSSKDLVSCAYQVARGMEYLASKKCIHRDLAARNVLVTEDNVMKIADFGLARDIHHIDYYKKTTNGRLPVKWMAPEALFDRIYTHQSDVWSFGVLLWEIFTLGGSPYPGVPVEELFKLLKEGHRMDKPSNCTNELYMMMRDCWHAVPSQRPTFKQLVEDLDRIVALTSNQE

[16] = target: T15, Jnk1 (Homo sapiens, UniProt P45983); assay: AlphaScreen kinase assay, Jnk1; conditions: read-out: IC50, activity toward kinase Jnk1
T15 construct: purchased Upstate Biotechnology

[17] = target: T16, Src (Homo sapiens, UniProt P12931); assay: AlphaScreen kinase assay, Src; conditions: read-out: IC50, activity toward kinase Src
T16 construct: P1144. pET-N6 BI-PTP SRC V86-L536-X; made in house

Row | IC50 [1] | IC50 [2] | IC50 [5] | IC50 [8] | IC50 [9] | IC50 [11] | IC50 [12] | IC50 [13] | Structure (SMILES) | further results
1 | ≤ 10 µM | ≤ 10 µM |  |  |  |  |  |  | CS(=O)(=O)c1cccc(-c2cnc3[nH]ccc3c2)c1 [Compound P-0173, 5-(3-Methanesulfonyl-phenyl)-1H-pyrrolo[2,3-b]pyridine] | IC50 [3]: ≤ 10 µM
2 | ≤ 10 µM |  | ≤ 10 µM |  |  | ≤ 10 µM | ≤ 10 µM | ≤ 10 µM | c1cc2cc(Nc3ccc(N4CCCCC4)cc3)cnc2[nH]1 [Compound P-1016] | 
3 | ≤ 10 µM |  |  |  |  |  | ≤ 10 µM |  | Brc1ccc(Nc2cnc3[nH]ccc3c2)cc1 [Compound P-1067] | 

Second part, the compound before the results:

Row | Structure (SMILES) | IC50 [1] | IC50 [2] | IC50 [5] | IC50 [8] | IC50 [9] | IC50 [11] | IC50 [12] | IC50 [13] | further results
4 | c1cc(-c2ccc(N3CCNCC3)nc2)c2cc[nH]c2n1 [Compound P-0270] |  | ≤ 10 µM | ≤ 10 µM |  |  |  |  |  | IC50 [4]: ≤ 10 µM; IC50 [6]: ≤ 10 µM
5 | c1cc(Nc2ccc(N3CCCCC3)cc2)c2cc[nH]c2n1 [Compound P-0883] | ≤ 10 µM |  | ≤ 10 µM | ≤ 10 µM | ≤ 10 µM |  |  |  | IC50 [7]: ≤ 10 µM; IC50 [10]: ≤ 10 µM
6 | NC(=O)c1cccc(-c2cnc3[nH]cc(Cc4ccccc4O)c3c2)c1 [Compound P-1385] | ≤ 10 µM |  |  | ≤ 10 µM | ≤ 10 µM | ≤ 10 µM | ≤ 10 µM | ≤ 10 µM | IC50 [14]: ≤ 10 µM; IC50 [15]: ≤ 10 µM; IC50 [16]: ≤ 10 µM; IC50 [17]: ≤ 10 µM
